Experimental data reported in US20260085062A1, “NOVEL COMPOUNDS AS CK2 INHIBITORS” (Cambridge Enterprise Limited, priority 2022, published 2026).

How the values were obtained:
CK2α = biological target: T1, CK2α (Homo sapiens, UniProt P68400); assay: Biochemical assay for inhibitors of CK2α kinase activity (ADP-Glo); details: 0.2 nM CK2α, 50 μM peptide substrate, 15 μM ATP, read-out: Assay 1: CK2α Enzyme IC50
T1 construct: CK2α (residues 2-329) was produced in Escherichia coli BL21 (DE3) for kinase activity screening; His6 (N, cleaved yes); made in house; host or cells: Escherichia coli BL21 (DE3)
T1 sequence (P68400 2-329): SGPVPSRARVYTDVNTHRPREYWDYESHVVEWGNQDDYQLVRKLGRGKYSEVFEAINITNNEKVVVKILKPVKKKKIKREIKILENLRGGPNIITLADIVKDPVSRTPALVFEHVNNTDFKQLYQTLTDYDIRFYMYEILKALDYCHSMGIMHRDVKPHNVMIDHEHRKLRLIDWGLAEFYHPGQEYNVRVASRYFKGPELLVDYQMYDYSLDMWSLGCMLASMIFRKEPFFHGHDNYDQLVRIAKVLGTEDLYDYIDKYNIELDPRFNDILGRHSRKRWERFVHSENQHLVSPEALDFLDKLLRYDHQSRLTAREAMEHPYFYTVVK

CLK2 = biological target: T2, CLK2 (Homo sapiens, UniProt P49760); assay: Biochemical assay for inhibitors of CLK2 kinase activity (ADP-Glo); details: 20 nM CLK2, 50 μM peptide substrate, 100 μM ATP, read-out: Assay 2: CLK2 Enzyme IC50
T2 construct: purchased Carna Biosciences 04-127
T2 sequence (P49760 whole entry): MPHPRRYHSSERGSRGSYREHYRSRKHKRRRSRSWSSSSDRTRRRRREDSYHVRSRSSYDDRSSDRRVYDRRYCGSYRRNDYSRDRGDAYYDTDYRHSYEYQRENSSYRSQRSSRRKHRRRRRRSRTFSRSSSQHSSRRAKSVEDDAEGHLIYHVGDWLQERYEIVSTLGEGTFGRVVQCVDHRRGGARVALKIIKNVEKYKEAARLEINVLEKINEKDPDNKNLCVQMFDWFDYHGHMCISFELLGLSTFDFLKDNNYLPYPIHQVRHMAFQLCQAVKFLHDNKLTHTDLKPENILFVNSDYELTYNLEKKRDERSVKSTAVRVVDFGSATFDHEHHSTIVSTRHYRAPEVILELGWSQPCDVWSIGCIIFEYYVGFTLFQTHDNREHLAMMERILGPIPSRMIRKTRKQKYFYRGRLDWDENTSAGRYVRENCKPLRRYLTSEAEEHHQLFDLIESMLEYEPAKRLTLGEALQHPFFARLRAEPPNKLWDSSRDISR

intracellular CK2α = biological target: T3, intracellular CK2α (Homo sapiens, UniProt P19784); assay: Cell-based NanoBRET assay for inhibitor binding to intracellular CK2α; details: HCT116 cells transiently transfected with CSNK2A2-NanoLuc fusion vector; Tracer K-5; 2 h; read-out: Assay 3: NanoBRET ™ assay for binding to intracellular CK2α
T3 construct: host or cells: HCT116 (ATCC CCL-247)
T3 sequence (P19784 whole entry, the tested form may be a part): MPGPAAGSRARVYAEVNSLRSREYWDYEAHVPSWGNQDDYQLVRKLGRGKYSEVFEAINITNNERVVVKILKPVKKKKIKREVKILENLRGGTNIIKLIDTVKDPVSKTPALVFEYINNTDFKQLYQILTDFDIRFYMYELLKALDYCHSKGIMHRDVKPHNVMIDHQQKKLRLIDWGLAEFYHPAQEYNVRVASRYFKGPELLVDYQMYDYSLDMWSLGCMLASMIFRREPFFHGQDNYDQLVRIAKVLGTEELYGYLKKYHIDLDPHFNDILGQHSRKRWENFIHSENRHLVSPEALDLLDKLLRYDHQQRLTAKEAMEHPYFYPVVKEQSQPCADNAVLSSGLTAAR
Procedure, shortened: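 Apparent affinity came from BRET ratio (acceptor/donor ×1,000), with donor read at 450 nm and acceptor at 610 or 630 nm. Compounds competed off a tracer added at fixed concentration to cells carrying a NanoLuc-CK2α fusion.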

SMILES	IC50 (CK2α) [nM]	IC50 (CLK2) [nM]	IC50 (intracellular CK2α) [µM]
FC(F)(F)c1ccc2[nH]c(CNCCCCOCCNc3cc(-c4ccncn4)cc4[nH]ncc34)cc2c1 [Example 95, 6-(pyrimidin-4-yl)-N-(2-(4-(((5-(trifluoromethyl)-1H-indol-2-yl)methyl)amino)butoxy)ethyl)-1H-indazol-4-amine]	6.56	203	0.336
N#Cc1cc(NCCOCCCCNCc2cc3cc(C(F)(F)F)ccc3[nH]2)c2cn[nH]c2c1 [Example 96, 4-((2-(4-(((5-(trifluoromethyl)-1H-indol-2-yl)methyl)amino)butoxy)ethyl)amino)-1H-indazole-6-carbonitrile]	27	227	2
FC(F)(F)c1ccc2[nH]c(CNCCCCOCCNc3cc(-c4cnoc4)cc4[nH]ncc34)cc2c1 [Example 97, 6-(isoxazol-4-yl)-N-(2-(4-(((5-(trifluoromethyl)-1H-indol-2-yl)methyl)amino)butoxy)ethyl)-1H-indazol-4-amine]	1.42	104	0.321
c1cc2[nH]c(CNCCCCOCCNc3cc(-c4cnoc4)cc4[nH]ncc34)cc2cc1OC1CCC1 [Example 98, N-(2-(4-(((5-cyclobutoxy-1H-indol-2-yl)methyl)amino)butoxy)ethyl)-6-(isoxazol-4-yl)-1H-indazol-4-amine]	0.82	122	0.105
FC(F)(F)Oc1ccc(CNCCCCOCCNc2cc(-c3ccnnc3)cc3[nH]nnc23)cc1Cl [Example 99, N-(2-(4-((3-chloro-4-(trifluoromethoxy)benzyl)amino)butoxy)ethyl)-6-(pyridazin-4-yl)-1H-benzo[d][1,2,3]triazol-4-amine]	20.1	28000	1.01
FC(F)(F)c1ccc2[nH]c(CNCCCCOCCNc3cc(-c4ccnnc4)cc4[nH]nnc34)cc2c1 [Example 100, 6-(pyridazin-4-yl)-N-(2-(4-(((5-(trifluoromethyl)-1H-indol-2-yl)methyl)amino)butoxy)ethyl)-1H-benzo[d][1,2,3]triazol-4-amine]	22.3	22900	1.41
FC(F)(F)c1ccc2[nH]c(CNCCCCOCCOc3cc(-c4ccnnc4)cc4[nH]nnc34)cc2c1 [Example 101, 4-(2-((6-(pyridazin-4-yl)-1H-benzo[d][1,2,3]triazol-4-yl)oxy)ethoxy)-N-((5-(trifluoromethyl)-1H-indol-2-yl)methyl)butan-1-amine]	223	48600	> 50
FC(F)(F)Oc1ccc(CNCCCCOCCOc2cc(-c3ccnnc3)cc3[nH]nnc23)cc1Cl [Example 102, N-(3-chloro-4-(trifluoromethoxy)benzyl)-4-(2-((6-(pyridazin-4-yl)-1H-benzo[d][1,2,3]triazol-4-yl)oxy)ethoxy)butan-1-amine]	393	43000	> 50
N#CCc1cc(F)cc(CNCCCCOC2CN(c3cc(-n4cnnc4)cc4[nH]ncc34)C2)c1 [Example 103, 2-(3-(((4-((1-(6-(4H-1,2,4-triazol-4-yl)-1H-indazol-4-yl)azetidin-3-yl)oxy)butyl)amino)methyl)-5-fluorophenyl)acetonitrile]	26.5	129	10.7
Cc1cc(CC#N)cc(CNCCCCOC2CN(c3cc(-n4cnnc4)cc4[nH]ncc34)C2)c1 [Example 106, 2-(3-(((4-((1-(6-(4H-12,4-triazol-4-yl)-1H-indazol-4-yl)azetidin-3-yl)oxy)butyl)amino)methyl)-5-methylphenyl)acetonitrile]	41.7	368	26.6
c1cc(-c2cc(N3CC(OCCCCNCc4cc5cc(OC6CCC6)ccc5[nH]4)C3)c3cn[nH]c3c2)cnn1 [Example 109, N-((5-cyclobutoxy-1H-indol-2-yl)methyl)-4-((1-(6-(pyridazin-4-yl)-1H-indazol-4-yl)azetidin-3-yl)oxy)butan-1-amine]	42.5	2920	2.81
FC(F)(F)c1ccc2[nH]c(CNCCCCOCCOc3cc(-n4cnnc4)cc4[nH]nnc34)cc2c1 [Example 116, 4-(2-((6-(4H-1,2,4-triazol-4-yl)-1H-benzo[d][1,2,3]triazol-4-yl)oxy)ethoxy)-N-((5-(trifluoromethyl)-1H-indol-2-yl)methyl)butan-1-amine]	247	> 50000	> 50
FC(F)(F)c1ccc2[nH]c(CNCCCCOCCOc3cc(-n4cnnc4)cc4[nH]ncc34)cc2c1 [Example 117, 4-(2-((6-(4H-1,2,4-triazol-4-yl)-1H-indazol-4-yl)oxy)ethoxy)-N-((5-(trifluoromethyl)-1H-indol-2-yl)methyl)butan-1-amine]	3	1260	0.214
c1cc2[nH]c(CNCCCCOCCOc3cc(-n4cnnc4)cc4[nH]ncc34)cc2cc1OC1CCC1 [Example 118, 4-(2-((6-(4H-1,2,4-triazol-4-yl)-1H-indazol-4-yl)oxy)ethoxy)-N-((5-cyclobutoxy-1H-indol-2-yl)methyl)butan-1-amine]	0.86	1100	0.204

Other lines, results leading:

IC50 (CK2α) [nM]	IC50 (CLK2) [nM]	IC50 (intracellular CK2α) [µM]	SMILES
64.2	264	14.9	OCc1cc(CNCCCCOC2CN(c3cc(-n4cnnc4)cc4[nH]ncc34)C2)cc(C(F)(F)F)c1 [Example 104, (3-(((4-((1-(6-(4H-1,2,4-triazol-4-yl)-1H-indazol-4-yl)azetidin-3-yl)oxy)butyl)amino)methyl)-5-(trifluoromethyl)phenyl)methanol]
21.6	167	5.34	N#CCc1cc(CNCCCCOC2CN(c3cc(-n4cnnc4)cc4[nH]ncc34)C2)cc(C(F)(F)F)c1 [Example 105, 2-(3-(((4-((1-(6-(4H-1,2,4-triazol-4-yl)-1H-indazol-4-yl)azetidin-3-yl)oxy)butyl)amino)methyl)-5-(trifluoromethyl)phenyl)acetonitrile]
28.1	2640	3.74	FC(F)(F)Oc1ccc(CNCCCCOC2CN(c3cc(-c4ccnnc4)cc4[nH]ncc34)C2)cc1Cl [Example 107, N-(3-chloro-4-(trifluoromethoxy)benzyl)-4-((1-(6-(pyridazin-4-yl)-1H-indazol-4-yl)azetidin-3-yl)oxy)butan-1-amine]
20.9	2730	2.38	Fc1cc(CNCCCCOC2CN(c3cc(-c4ccnnc4)cc4[nH]ncc34)C2)ccc1OC(F)(F)F [Example 108, N-(3-fluoro-4-(trifluoromethoxy)benzyl)-4-((1-(6-(pyridazin-4-yl)-1H-indazol-4-yl)azetidin-3-yl)oxy) butan-1-amine]
384	2720	20.6	OCc1cc(F)cc(CNCCCCOC2CN(c3cc(-c4ccnnc4)cc4[nH]ncc34)C2)c1 [Example 110, (3-fluoro-5-(((4-((1-(6-(pyridazin-4-yl)-1H-indazol-4-yl)azetidin-3-yl)oxy)butyl)amino)methyl)phenyl)methanol]
228	2300	14.2	OCc1cc(Cl)cc(CNCCCCOC2CN(c3cc(-c4ccnnc4)cc4[nH]ncc34)C2)c1 [Example 111, (3-chloro-5-(((4-((1-(6-(pyridazin-4-yl)-1H-indazol-4-yl)azetidin-3-yl)oxy)butyl)amino)methyl)phenyl)methanol]
205	633	14	OCc1cc(CNCCCCOC2CN(c3cc(-c4ccnnc4)cc4[nH]ncc34)C2)cc(C(F)(F)F)c1 [Example 112, (3-(((4-((1-(6-(pyridazin-4-yl)-1H-indazol-4-yl)azetidin-3-yl)oxy)butyl)amino)methyl)-5-(trifluoromethyl)phenyl)methanol]
67.5	2710	8.09	N#CCc1cc(F)cc(CNCCCCOC2CN(c3cc(-c4ccnnc4)cc4[nH]ncc34)C2)c1 [Example 113, 2-(3-fluoro-5-(((4-((1-(6-(pyridazin-4-yl)-1H-indazol-4-yl)azetidin-3-yl)oxy)butyl)amino)methyl)phenyl)acetonitrile]
50.5	2150	2.52	N#CCc1cc(CNCCCCOC2CN(c3cc(-c4ccnnc4)cc4[nH]ncc34)C2)cc(C(F)(F)F)c1 [Example 114, 2-(3-(((4-((1-(6-(pyridazin-4-yl)-1H-indazol-4-yl)azetidin-3-yl)oxy)butyl)amino)methyl)-5-(trifluoromethyl)phenyl)acetonitrile]
115	6460	9.91	Cc1cc(CC#N)cc(CNCCCCOC2CN(c3cc(-c4ccnnc4)cc4[nH]ncc34)C2)c1 [Example 115, 2-(3-methyl-5-(((4-((1-(6-(pyridazin-4-yl)-1H-indazol-4-yl)azetidin-3-yl)oxy)butyl)amino)methyl)phenyl)acetonitrile]
